Measured values published in patent publication US8987285B2, “Pharmaceutical compositions, dosage forms and new forms of the compound of formula (I), and methods of use thereof” (Portola Pharmaceuticals, Inc., priority 2010, dated 2015).

Assay: Pharmacokinetic Study 1: FMI tablets fasted/fed versus reference IR capsule, crossover, healthy adult volunteers
Type: in vivo, human
Settings: for Geometric-mean ratio (Fed/Fasted) of AUCinf / Geometric-mean ratio (Fed/Fasted) of AUClast / Geometric-mean ratio (Fed/Fasted) of Cmax: high fat breakfast versus fasted
Experimental: This was an open label, randomized, four-period, incomplete crossover, single center study in healthy adult volunteers. There were 4 treatments in the study: 3 doses of the FMI (given fasting or fed following a high-fat breakfast) and one reference IR capsule (given fed after a typical breakfast). The term “FMI” refers to the dosage form of Example 7 (30 mg FMI) or Example 8 (75 mg FMI).
Each subject was randomized to 1 of 18 treatment sequences, each with 4 treatment periods (Table 27). The first treatment period consisted of 1 of the 3 doses of FMI given fed, and treatment periods 2 to 4 consisted of 1 dose of IR capsule (fed) and 2 of the 3 doses of the FMI given fasted. […] Each subject therefore had 2 fasting treatments with the FMI formulation, 1 fed treatment with the FMI formulation and a reference treatment (IR capsule). Seventy two subjects enrolled and were dosed in the study with 70 completers.
The study consisted of a 28-day screening period, four baseline periods (one before each treatment period), four treatment periods with a wash out period of a minimum of 5 days, followed by a study completion evaluation approximately 72 hours after the last drug administration. Subjects who met the eligibility criteria at screening were admitted to baseline evaluations. All baseline safety evaluation results were available prior to dosing.
For fasted administration, elinogrel was administered in the morning, following an overnight fast of at least 10 hours. Subjects continued to fast until 4 hours post-dose. For fed administration of FMI tablets, elinogrel was administered in the morning, within 30 minutes of a high fat breakfast (approximately 1000 calories). Subjects continued to fast until 4 hours post-dose. For fed administration of the reference (IR capsule), it was administered in the morning, within 30 minutes of a typical breakfast (approximately 500 calories). Subjects continued to fast until 4 hours post-dose.
Subjects were admitted to the study site approximately 12 hours prior to dosing in each period for baseline evaluations. Following a single dose of elinogrel, PK assessments were taken up to 48 hours post dose and safety assessments were made for up to 72 hours.
Subjects were domiciled for 24 hours post dosing for PK sample collection, at which time they were discharged from the study site. Subjects returned on the following 2 mornings for 48 hour PK and 72 hour safety samples. Following the 72 hour safety assessments of treatment period 4 (or in the case of subject discontinuation) subjects underwent study completion evaluations and were discharged from the study. […].
This was a three-period, four-treatment crossover study design with an add-on food effect period (Period 1).
Treatment 1 (T1)=elinogrel 30 mg FMI dose fasting
Treatment 2 (T2)=elinogrel 75 mg FMI dose fasting
Treatment 3 (T3)=elinogrel 150 mg FMI dose fasting
Reference (R)=elinogrel 150 mg IR capsule dose fed (typical breakfast); Example 6 (Reference)
Fed treatment 1 (F1)=elinogrel 30 mg FMI dose fed (high fat breakfast)
Fed treatment 2 (F2)=elinogrel 75 mg FMI dose fed (high fat breakfast)
Fed treatment 3 (F3)=elinogrel 150 mg FMI dose fed (high fat breakfast)
Subjects will received the following treatments in a randomized order: • Treatment (T1, F1) with IR (IR=immediate release) tablet of Example 7 containing pH-modifying alkalizing agent, 30 mg in fasted and fed state. • Treatment (T2, F2) with IR (IR=immediate release) tablet of Example 8 containing pH-modifying alkalizing agent, 75 mg in fasted and fed state • Treatment (R) with 2×IR (IR=immediate release) capsule of Example 6 (Reference): 2×75 mg (150 mg) in fed state. • Treatment (T3, F3) with 2×IR (IR=immediate release) tablet of Example 8 containing pH-modifying alkalizing agent, 2×75 mg (150 mg) in fasted and fed state.
To evaluate the food effect, the geometric mean ratio for PK parameters of the fed versus fasted for each dose level and its 90% CI was estimated as shown in Table 29 below.

In the case of CNc1cc2[nH]c(=O)n(-c3ccc(NC(=O)NS(=O)(=O)c4ccc(Cl)s4)cc3)c(=O)c2cc1F [compound of formula (II), elinogrel], the “decrease of AUC by high fat meal” value (30 mg dose) is reported as 44-52%, the “decrease of Cmax by high fat meal” value (30 mg dose) is reported as 58% and the “decrease of AUC by high fat meal” value (75 mg dose) is reported as 14-18%. For the same molecule, the “decrease of Cmax by high fat meal” value (75 mg dose) was 36%, the “decrease of AUC by high fat meal” value (150 mg dose) was 29-30% and the “decrease of Cmax by high fat meal” value (150 mg dose) was 48%. The “Geometric-mean ratio (Fed/Fasted) of AUCinf” value (FMI 30 mg) was 0.48, the “Geometric-mean ratio (Fed/Fasted) of AUClast” value (FMI 30 mg) was 0.56 and the “Geometric-mean ratio (Fed/Fasted) of Cmax” value (FMI 30 mg) was 0.42. The “Geometric-mean ratio (Fed/Fasted) of AUCinf” value (FMI 75 mg) was 0.86, the “Geometric-mean ratio (Fed/Fasted) of AUClast” value (FMI 75 mg) was 0.82 and the “Geometric-mean ratio (Fed/Fasted) of Cmax” value (FMI 75 mg) was 0.64. For the same molecule, the “Geometric-mean ratio (Fed/Fasted) of AUCinf” value (FMI 150 mg) was 0.71, the “Geometric-mean ratio (Fed/Fasted) of AUClast” value (FMI 150 mg) was 0.70 and the “Geometric-mean ratio (Fed/Fasted) of Cmax” value (FMI 150 mg) was 0.52.
